Molecular target: T1, ACVR1 (ALK2) (Homo sapiens, UniProt Q04771)
T1 construct: purchased Thermo Fisher Scientific (Life Technologies) SelectScreen
Test: SelectScreen LanthaScreen
Assay type: binding
Details: read-out: % displacement
Procedure, shortened: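 Percent values come from Thermo SelectScreen profiling of NU5455, combining activity and binding assays. CSF1R was run in Z'LYTE format at Km app ATP, and CAMK1 in Adapta format with ATP listed at 10.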

T1 sequence (Q04771 21-509): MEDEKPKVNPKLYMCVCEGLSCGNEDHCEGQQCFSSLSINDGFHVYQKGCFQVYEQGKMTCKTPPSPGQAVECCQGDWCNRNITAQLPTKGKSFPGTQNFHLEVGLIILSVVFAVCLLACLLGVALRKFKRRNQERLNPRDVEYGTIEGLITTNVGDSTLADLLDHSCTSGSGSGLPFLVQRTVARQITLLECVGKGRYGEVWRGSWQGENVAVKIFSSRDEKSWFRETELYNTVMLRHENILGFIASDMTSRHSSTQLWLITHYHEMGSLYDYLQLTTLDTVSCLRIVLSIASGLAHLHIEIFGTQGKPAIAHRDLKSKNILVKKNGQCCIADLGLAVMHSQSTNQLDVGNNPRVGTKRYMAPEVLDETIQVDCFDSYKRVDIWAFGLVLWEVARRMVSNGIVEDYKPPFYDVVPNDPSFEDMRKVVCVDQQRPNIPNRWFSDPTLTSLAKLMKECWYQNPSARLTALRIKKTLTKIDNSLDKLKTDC

SMILES: CN(C(=O)CN1CCOCC1)c1ccc2sc3c(-c4cccc5c(=O)cc(N6CC7CCC(C6)O7)oc45)cccc3c2c1 [NU5455]
- inhibition at 1 µM: 0.7%

— PMC6934184, “Selective DNA-PKcs inhibition extends the therapeutic index of localized radiotherapy and chemotherapy” (The Journal of Clinical Investigation, 2019)
